Measurements reported in US12384780B2, “PARP1 inhibitors and uses thereof” (XinThera, Inc., priority 2022, dated 2025).

Key:
[1] = tested on: DLD-1 BRCA2(−/−) cells; assay: Cell growth inhibition assay (CellTiter-Glo), DLD-1 BRCA2(−/−); type: cell-based; conditions: Homo sapiens, DLD-1, 168 h; 200 cells/well, 7 days, CellTiter Glo 2.0; read-out: DLD-1 BRCA2(−/−) pEC50 (converted)
Procedure: (§1) Cell proliferation was measured through the cell viability assay using DLD-1 BRCA2(−/−) and parental isogenic pair and MDA-MB-436 (mutated BRCA1) cell lines. The CellTiter-Glo (CTG) based cell viability assay is designed to determine the number of viable cells in the culture because of compound effect, by quantifying ATP, which indicates the presence of metabolically active cells.
(§2) DLD-1 BRCA2(−/−) and parental isogenic pair were cultured in RPMI 1640 supplemented with […] (FBS), and […] cells were cultured in DMEM supplemented with 10% FBS. Both were cultured at 37° C. with […]. Invention compounds were distributed to the 384 well plate (Corning, 3764) using Echo acoustic liquid handler to form a 1:3 serially diluted final concentration with top dose of 10 or 30 μM. The cells were seeded into the plate in the density of 50 cells/well (DLD-1 parental), 200 cells/well (DLD-1 BRCA2−/−), or 500 cells/well (MDA-MB-436). After a short spun, the cells were cultured in a well moisturized incubator at 37° C. with 5% CO2 for 7 days without disturbance. The cell viability was measured by CellTiter Glo 2.0 assay kit (Promega, G9243), and growth inhibition rate was calculated and plotted against final compound concentration, and the data were fitted in Xfit to generate IC50 values.

[2] = tested on: DLD-1 parental cells; assay: Cell growth inhibition assay (CellTiter-Glo), DLD-1 parental; type: cell-based; conditions: Homo sapiens, DLD-1, 168 h; 50 cells/well, 7 days, CellTiter Glo 2.0; read-out: DLD-1 parental pEC50 (converted)
Procedure: as §1, §2

[3] = tested on: MDA-MB-436 (mutated BRCA1) cells; assay: Cell growth inhibition assay (CellTiter-Glo), MDA-MB-436; type: cell-based; conditions: Homo sapiens, MDA-MB-436, 168 h, 500 cells/well, 7 days, CellTiter Glo 2.0; read-out: MDA-MB-436 pEC50 (converted)
Procedure: as §1, §2

[4] = target: T1, PARP2 (Homo sapiens, UniProt Q9UGN5); assay: Biochemical fluorescent polarization (FP) assay, displacement of PARPi-FL, PARP2; type: binding; conditions: 20 nM protein, 3 nM PARPi-FL, 4 h at room temperature; read-out: FP PARP2 pIC50 (converted)
T1 construct: made in house
T1 sequence (Q9UGN5 whole entry): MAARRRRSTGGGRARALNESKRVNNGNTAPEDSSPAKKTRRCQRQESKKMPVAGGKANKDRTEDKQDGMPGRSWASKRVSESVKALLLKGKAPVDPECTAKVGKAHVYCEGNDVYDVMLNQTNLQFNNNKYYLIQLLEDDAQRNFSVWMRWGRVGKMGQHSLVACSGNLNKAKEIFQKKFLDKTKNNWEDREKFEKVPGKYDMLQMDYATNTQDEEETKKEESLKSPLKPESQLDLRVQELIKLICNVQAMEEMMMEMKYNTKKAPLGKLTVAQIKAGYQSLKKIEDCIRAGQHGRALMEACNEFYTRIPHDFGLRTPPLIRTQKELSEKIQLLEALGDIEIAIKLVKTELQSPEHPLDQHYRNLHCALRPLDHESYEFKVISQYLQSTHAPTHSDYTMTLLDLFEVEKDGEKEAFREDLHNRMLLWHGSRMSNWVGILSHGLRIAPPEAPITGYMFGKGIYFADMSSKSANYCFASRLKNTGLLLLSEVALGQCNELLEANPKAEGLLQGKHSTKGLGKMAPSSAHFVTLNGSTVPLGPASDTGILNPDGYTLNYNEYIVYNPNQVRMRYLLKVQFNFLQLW
Procedure: (§3) Compounds were characterized using an assay measuring the displacement of a commercially available fluorescently labeled PARP 1/2 inhibitor (PARPi-FL, Tocris Biosciences, #6461) as exemplified in assays performed in WO2014/064149 and WO2021/013735A1. The assay was performed utilizing the following method: Compounds were dissolved in DMSO an Echo550 liquid handler was utilized to make serial dilations in the desired concentration range in Optiplate-384F plates. 100% DMSO was used for the high (with protein) and low (without protein) control samples. 20 nL of compound or DMSO alone was added to individual assay plate wells. PARP1 and PARP2 protein were expressed, purified, and diluted in assay buffer containing 50 mM Tris pH 8.0, 0.001% Triton X-100, 10 mM MgCl2, 150 mM NaCl to a final concentration of 20 nM. The PARPi-FL was then added at a final concentration of 3 nM. The assay plate was centrifuged at 1000 rpm for 1 min and incubated for 4 h at room temperature. […] [formula]

[5] = target: T2, PARP1 (Homo sapiens, UniProt P09874); assay: Biochemical fluorescent polarization (FP) assay, displacement of PARPi-FL, PARP1; type: binding; conditions: 20 nM protein, 3 nM PARPi-FL, 4 h at room temperature; for IC50: read-out: FP PARP1 pIC50 (converted)
T2 construct: made in house
T2 sequence (P09874 whole entry): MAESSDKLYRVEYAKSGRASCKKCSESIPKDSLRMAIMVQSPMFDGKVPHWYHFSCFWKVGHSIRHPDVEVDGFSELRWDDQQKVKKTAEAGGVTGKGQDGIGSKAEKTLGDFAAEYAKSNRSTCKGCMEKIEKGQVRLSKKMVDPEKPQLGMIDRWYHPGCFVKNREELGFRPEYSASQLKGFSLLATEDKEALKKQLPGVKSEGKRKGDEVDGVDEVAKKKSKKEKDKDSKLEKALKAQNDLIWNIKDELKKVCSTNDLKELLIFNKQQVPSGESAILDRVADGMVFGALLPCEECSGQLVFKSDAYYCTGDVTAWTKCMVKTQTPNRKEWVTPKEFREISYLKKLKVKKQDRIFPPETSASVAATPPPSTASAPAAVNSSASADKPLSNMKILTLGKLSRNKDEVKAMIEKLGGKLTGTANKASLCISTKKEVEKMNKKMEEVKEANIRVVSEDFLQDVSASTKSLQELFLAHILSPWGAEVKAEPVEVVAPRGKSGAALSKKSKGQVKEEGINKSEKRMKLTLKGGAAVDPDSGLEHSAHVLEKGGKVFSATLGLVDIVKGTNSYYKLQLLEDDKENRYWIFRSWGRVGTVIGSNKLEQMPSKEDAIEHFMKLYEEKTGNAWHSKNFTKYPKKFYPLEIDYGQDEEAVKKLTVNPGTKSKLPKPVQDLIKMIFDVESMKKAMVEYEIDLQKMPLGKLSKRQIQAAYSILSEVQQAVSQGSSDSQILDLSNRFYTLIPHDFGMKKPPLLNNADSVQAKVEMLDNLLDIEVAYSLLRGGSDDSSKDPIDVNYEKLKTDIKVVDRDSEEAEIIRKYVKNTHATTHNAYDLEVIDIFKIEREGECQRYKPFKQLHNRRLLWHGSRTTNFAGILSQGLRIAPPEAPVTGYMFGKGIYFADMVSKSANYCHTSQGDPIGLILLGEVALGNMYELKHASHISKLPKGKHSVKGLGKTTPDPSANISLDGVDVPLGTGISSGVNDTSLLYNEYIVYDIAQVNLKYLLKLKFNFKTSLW
Procedure: as §3

Row | Structure (SMILES) | EC50 [1] | EC50 [2] | EC50 [3] | IC50 [4] | IC50 [5] | FP PARP1 pIC50 [5]
1 | CCc1cc2ncc(CN3CCN(c4ccc(C#N)nc4)CC3)cc2[nH]c1=O [Example 3, 5-{4-[(7-ethyl-6-oxo-5H-1,5-naphthyridin-3-yl)methyl]piperazin-1-yl}pyridine-2-carbonitrile] | 3.16 nM | > 31600 nM | 2.51 nM | – | – | –
2 | N#Cc1ccc(N2CCN(Cc3cnc4cc(Cl)c(=O)[nH]c4c3)CC2)nc1 [Example 57] | 2.51 nM | 20000 nM | 2 nM | 50100 nM | 5.01 nM | –
3 | Cc1cc2ncc(CN3CCN(c4ccc(C#N)cn4)CC3)cc2[nH]c1=O [Example 6] | 2.51 nM | > 31600 nM | 2.51 nM | 5010 nM | 5.01 nM | –
4 | Cc1cc2ncc(CN3CCN(c4ccc(C#N)cn4)[C@H](C)C3)cc2[nH]c1=O [Example 24] | 79.4 nM | – | 50.1 nM | > 100000 nM | 10 nM | –
5 | Cc1cc2c(F)cc(CN3CCN(c4ccc(C#N)cn4)CC3)cc2[nH]c1=O [Example 79] | 7.94 nM | – | 5.01 nM | 12600 nM | 10 nM | –
6 | N#Cc1ccc(N2CCN(Cc3cnc4cc(C(F)F)c(=O)[nH]c4c3)CC2)cc1 [Example 59] | 1.26 nM | – | 1 nM | > 100000 nM | 6.31 nM | –
7 | CCc1cc2ncc(CN3CCN(c4cc(F)c(C#N)cc4F)CC3)cc2[nH]c1=O [Example 41] | 0.794 nM | – | 1 nM | 2000 nM | 12.6 nM | –
8 | CCc1cc2ncc(CN3CCN(c4ccc(C#N)nc4)[C@H]4C[C@H]43)cc2[nH]c1=O (single isomer, unassigned) [Example 14] | 63.1 nM | – | 50.1 nM | 6310 nM | 5.01 nM | –
9 | Cc1cc2ncc(CN3CCN(c4ccc(F)cc4C#N)CC3)cc2[nH]c1=O [Example 35] | 3.16 nM | – | 2.51 nM | 63100 nM | 10 nM | –
10 | O=c1[nH]c2cc(CN3CCN(c4ccc(F)cn4)CC3)cnc2cc1C1CC1 [Example 16, 3-cyclopropyl-7-{[4-(5-fluoropyridin-2-yl)piperazin-1-yl]methyl}-1H-1,5-naphthyridin-2-one] | 10 nM | – | 10 nM | 2510 nM | – | 8.5
11 | Cc1cc2ncc([C@H](C)N3CCN(c4ccc(C#N)cn4)CC3)cc2[nH]c1=O (single isomer, unassigned) [Example 32] | 12.6 nM | – | 7.94 nM | > 100000 nM | 3.98 nM | –
12 | Cc1cc2ncc(CN3CCN(c4ncc(F)cc4F)CC3)cc2[nH]c1=O [Example 26] | > 1000 nM | – | > 1000 nM | > 100000 nM | > 100 nM | –
13 | [2H]C([2H])(c1cnc2cc(CC)c(=O)[nH]c2c1)N1CCN(c2ccc(F)cc2C#N)CC1 [Example 67] | 1.58 nM | – | 1.58 nM | 25100 nM | 15.8 nM | –
